Assay results: paper PMC10251509, “Ultrafast Fragment Screening Using Photo-Hyperpolarized (CIDNP) NMR” (Journal of the American Chemical Society, 2023)

Target: T1, PIN1 (Homo sapiens, UniProt Q13526)
T1 construct: polyhistidine (N); made in house; host or cells: Escherichia coli BL21 (DE3)
Assay: photo-CIDNP 1D 1H NMR fragment screening (polarization ratio) against PIN1
Format: binding
Method: The combination of these two effects yields the quenching of the photo-CIDNP hyperpolarized signal in the case of binding to a protein, as L decreases and R1,eff increases.
It is also overexpressed in many human cancer cells.[16] It is thus regarded as a potential drug target, and several studies attempted to discover hits and unravel the structure–activity relationship.[3],[4],[36] […] The NMR experiments were performed using single-scan NMR experiments, comprising light irradiation, an excitation pulse, and a water suppression scheme, as described previously.[13] Although each experiment was recorded in only 2 s, the limiting step was the sample tube exchange. Indeed, the optic fiber needed to be plugged into the tubes while changing the samples, which required ca. 15 s per tube using a house-made connector tightening the tube and the optic fiber with O-rings (Figure S2). Removing the sample from and bringing the new sample into the spectrometer requires an additional 30 s, and a shimming step must be performed for each new tube (30 s).
As proposed in the theoretical part, the photo-CIDNP traces were recorded in the presence and absence of PIN1. The peak intensity and chemical shifts were analyzed pairwise to identify the hits. […] The reference apo-PIN1 sample was spiked with 1.9 μL of DMSO to compensate for the DMSO that is introduced upon fragment addition, as the fragments are stored in stock solutions of 5 mM 90% DMSO-d6 and 10% D2O.
The laser used was a Thorlabs L450P1600MM, a diode laser emitting at 450 nm. The laser light was coupled (using appropriate coupling optics) into an optical fiber (Thorlabs, FG950UEC) of length 10 m and a diameter of 0.95 mm. The end of the fiber was inserted into the sample solution inside the 3 mm NMR glass tube to a depth of about 5 mm above the NMR coil region. The library QC and the control binding experiments for PIN1 were measured on a Bruker Avance III HD 600 MHz spectrometer equipped with a cryoprobe and SampleJet.

T1 sequence (Q13526 whole entry): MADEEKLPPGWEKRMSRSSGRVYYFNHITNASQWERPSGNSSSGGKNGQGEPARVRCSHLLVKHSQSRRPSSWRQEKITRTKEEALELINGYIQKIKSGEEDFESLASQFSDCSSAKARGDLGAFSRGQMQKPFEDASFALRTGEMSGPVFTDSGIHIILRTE

polarization ratio (50 μM ligand, ±25 μM PIN1, 20 μM fluorescein, 0 = total binding, 1 = no interaction, hit <0.8): 0.38 | polarization ratio (low concentration: 20 μM ligand (compound 1: 5 μM), ±2 μM PIN1, single scan): 0.73
SMILES: Cc1cccc(-c2nc(C)c(C(=O)O)[nH]2)c1 [Compound 13, reference compound]
